Measurements published in patent US20230023332A1, “OLEAN-PHENYLACRYLAMIDE DERIVATIVE, METHOD FOR PREPARING SAME, AND USE THEREOF” (Lunan Pharmaceutical Group Corporation, priority 2019, published 2023).

test system: rat embryonic cardiomyocytes H9C2; experiment: MTT proliferation inhibition / toxicity, H9C2; assay type: cell-based; details: Rattus norvegicus; H9C2 cardiomyocytes, MTT, 48 h; read-out: Inhibitory activity (IC50) against proliferation, H9C2
Procedure: (§1) The anti-tumor activity of the compounds of the present invention was determined by the method of methyl thiazolyl tetrazolium (MTT), Bardoxolone Methyl (CDDO-Me) being selected as a positive control medicament.
(§2) Instruments: ultra-clean bench (SW-CJ-1FD, AIRTECH, Suzhou Antai Airtech Co. Ltd.), constant-temperature CO2 incubator (3111, Thermo, USA), inverted biomicroscope (IX71, OLYMPUS, Japan), ELISA microplate reader (Model 680, BIO-RAD, USA), platform shaker (Kylin-bell lab Instruments), autoclave (YXO.SG4I.280, Shanghai Huaxian), and centrifuge (SIGMA).
(§3) Reagents: DMEM (GIBCO), fetal bovine serum (GIBCO), trypsin (SIGMA), and DMSO (SIGMA).
(§4) Cell strains: human non-small cell lung cancer cell strain A549, human liver cancer cell strain HepG2, human breast cancer cell strain MCF-7, human renal tubular epithelial cells HK-2, rat embryonic cardiomyocytes H9C2 (all provided by Jiangsu KeyGEN BioTECH Co., Ltd.).
(§5) Methods: the cryopreserved cell strains were resuscitated and cultured in a CO2 incubator at a constant temperature of 37° C. with liquid being changed once daily. Plating was carried out when the cell strains were in a good state in the exponential phase. 1 mL of 0.25% trypsin solution was added for digestion for 1-2 min. The cell status was observed under the microscope, and when the adherent cells became round and shrunk, the digestion solution was aspirated and 1-2 mL of a DMEM medium containing 10% fetal bovine serum was added to obtain a cell suspension, on which a cell count was performed. The amount of required cell suspension was calculated on the basis of 5×10^4 cells per well and the total number of wells. The cell suspension was inoculated on a 96-well plate at 100 μL/well, the surroundings being blocked with PBS, followed by incubation in a CO2 incubator at a constant temperature of 37° C. for 24 h.
(§6) The test medicament, positive control medicament CDDO-Me, and blank control group DMSO were prepared in DMEM media to a final concentration of 5 μM/well, each medicament being placed in 3 replicate wells, followed by incubation for 48 h. The MTT reagent was added to the 96-well plate at 10 μL/well to further incubate for 4 h. The medium in the plate was aspirated and 100 μL of DMSO was added to each well, followed by shaking on the platform shaker for 10 min such that the crystals were dissolved. The absorbance of each well was examined by the ELISA microplate reader at a wavelength of 570 nm, and the cell inhibition rate was calculated according to the formula hereinafter. The mean value of three preliminary screening results was taken as the final inhibition rate thereof.
(§7) Cell inhibition rate (%)=[(OD value of blank control−OD value of dosing cohort)/OD value of blank control group]×100%

Structure (SMILES) | IC50
Cc1ccc(/C=C/C(=O)N[C@]23CCC(C)(C)C[C@H]2[C@H]2C(=O)C=C4[C@@]5(C)C=C(C#N)C(=O)C(C)(C)[C@@H]5CC[C@@]4(C)[C@]2(C)CC3)cc1 [Compound I-2] | 0.218 ± 0.007 µM
COc1ccc(/C=C(\C#N)C(=O)N[C@]23CCC(C)(C)C[C@H]2[C@H]2C(=O)C=C4[C@@]5(C)C=C(C#N)C(=O)C(C)(C)[C@@H]5CC[C@@]4(C)[C@]2(C)CC3)cc1 [Compound I-9] | 0.417 ± 0.019 µM
Cc1ccc(/C=C(\C#N)C(=O)N[C@]23CCC(C)(C)C[C@H]2[C@H]2C(=O)C=C4[C@@]5(C)C=C(C#N)C(=O)C(C)(C)[C@@H]5CC[C@@]4(C)[C@]2(C)CC3)cc1 [Compound I-8] | 0.274 ± 0.002 µM
COc1ccc(/C=C/C(=O)N[C@]23CCC(C)(C)C[C@H]2[C@H]2C(=O)C=C4[C@@]5(C)C=C(C#N)C(=O)C(C)(C)[C@@H]5CC[C@@]4(C)[C@]2(C)CC3)cc1 [Compound I-3] | 0.174 ± 0.005 µM

test system: human renal tubular epithelial cells HK-2; experiment: MTT proliferation inhibition / toxicity, HK-2; assay type: cell-based; details: Homo sapiens; HK-2 cells, MTT, 48 h; read-out: Inhibitory activity (IC50) against proliferation, HK-2
Procedure: as §1, §2, §3, §4, §5, §6, §7

Structure (SMILES) | IC50
Cc1ccc(/C=C/C(=O)N[C@]23CCC(C)(C)C[C@H]2[C@H]2C(=O)C=C4[C@@]5(C)C=C(C#N)C(=O)C(C)(C)[C@@H]5CC[C@@]4(C)[C@]2(C)CC3)cc1 [Compound I-2] | 1.39 ± 0.032 µM
COc1ccc(/C=C(\C#N)C(=O)N[C@]23CCC(C)(C)C[C@H]2[C@H]2C(=O)C=C4[C@@]5(C)C=C(C#N)C(=O)C(C)(C)[C@@H]5CC[C@@]4(C)[C@]2(C)CC3)cc1 [Compound I-9] | 0.748 ± 0.341 µM
Cc1ccc(/C=C(\C#N)C(=O)N[C@]23CCC(C)(C)C[C@H]2[C@H]2C(=O)C=C4[C@@]5(C)C=C(C#N)C(=O)C(C)(C)[C@@H]5CC[C@@]4(C)[C@]2(C)CC3)cc1 [Compound I-8] | 0.423 ± 0.03 µM
COc1ccc(/C=C/C(=O)N[C@]23CCC(C)(C)C[C@H]2[C@H]2C(=O)C=C4[C@@]5(C)C=C(C#N)C(=O)C(C)(C)[C@@H]5CC[C@@]4(C)[C@]2(C)CC3)cc1 [Compound I-3] | 0.7 ± 0.016 µM

same assay, conditions: statement in words

Structure (SMILES) | toxicity to human renal tubular epithelial cells HK-2
Cc1ccc(/C=C/C(=O)N[C@]23CCC(C)(C)C[C@H]2[C@H]2C(=O)C=C4[C@@]5(C)C=C(C#N)C(=O)C(C)(C)[C@@H]5CC[C@@]4(C)[C@]2(C)CC3)cc1 [Compound I-2] | lower toxicity
COc1ccc(/C=C(\C#N)C(=O)N[C@]23CCC(C)(C)C[C@H]2[C@H]2C(=O)C=C4[C@@]5(C)C=C(C#N)C(=O)C(C)(C)[C@@H]5CC[C@@]4(C)[C@]2(C)CC3)cc1 [Compound I-9] | lower toxicity
Cc1ccc(/C=C(\C#N)C(=O)N[C@]23CCC(C)(C)C[C@H]2[C@H]2C(=O)C=C4[C@@]5(C)C=C(C#N)C(=O)C(C)(C)[C@@H]5CC[C@@]4(C)[C@]2(C)CC3)cc1 [Compound I-8] | lower toxicity
COc1ccc(/C=C/C(=O)N[C@]23CCC(C)(C)C[C@H]2[C@H]2C(=O)C=C4[C@@]5(C)C=C(C#N)C(=O)C(C)(C)[C@@H]5CC[C@@]4(C)[C@]2(C)CC3)cc1 [Compound I-3] | lower toxicity

test system: human breast cancer cell strain MCF-7; experiment: MTT proliferation inhibition, MCF-7; assay type: cell-based; details: Homo sapiens, MCF7, MCF-7 cells, 48 h, read-out: Inhibitory activity (IC50) against proliferation, MCF-7
Procedure: as §1, §2, §3, §4, §5, §6, §7

Structure (SMILES) | IC50
Cc1ccc(/C=C/C(=O)N[C@]23CCC(C)(C)C[C@H]2[C@H]2C(=O)C=C4[C@@]5(C)C=C(C#N)C(=O)C(C)(C)[C@@H]5CC[C@@]4(C)[C@]2(C)CC3)cc1 [Compound I-2] | 0.547 ± 0.074 µM
COc1ccc(/C=C(\C#N)C(=O)N[C@]23CCC(C)(C)C[C@H]2[C@H]2C(=O)C=C4[C@@]5(C)C=C(C#N)C(=O)C(C)(C)[C@@H]5CC[C@@]4(C)[C@]2(C)CC3)cc1 [Compound I-9] | 1.13 ± 0.04 µM
Cc1ccc(/C=C(\C#N)C(=O)N[C@]23CCC(C)(C)C[C@H]2[C@H]2C(=O)C=C4[C@@]5(C)C=C(C#N)C(=O)C(C)(C)[C@@H]5CC[C@@]4(C)[C@]2(C)CC3)cc1 [Compound I-8] | 0.789 ± 0.052 µM
COc1ccc(/C=C/C(=O)N[C@]23CCC(C)(C)C[C@H]2[C@H]2C(=O)C=C4[C@@]5(C)C=C(C#N)C(=O)C(C)(C)[C@@H]5CC[C@@]4(C)[C@]2(C)CC3)cc1 [Compound I-3] | 0.375 ± 0.038 µM

test system: human non-small cell lung cancer cell strain A549; experiment: MTT proliferation inhibition, A549; assay type: cell-based; details: Homo sapiens, A549 cells, 48 h, read-out: Inhibitory activity (IC50) against proliferation, A549
Procedure: as §1, §2, §3, §4, §5, §6, §7

Structure (SMILES) | IC50
Cc1ccc(/C=C/C(=O)N[C@]23CCC(C)(C)C[C@H]2[C@H]2C(=O)C=C4[C@@]5(C)C=C(C#N)C(=O)C(C)(C)[C@@H]5CC[C@@]4(C)[C@]2(C)CC3)cc1 [Compound I-2] | 0.549 ± 0.01 µM
COc1ccc(/C=C(\C#N)C(=O)N[C@]23CCC(C)(C)C[C@H]2[C@H]2C(=O)C=C4[C@@]5(C)C=C(C#N)C(=O)C(C)(C)[C@@H]5CC[C@@]4(C)[C@]2(C)CC3)cc1 [Compound I-9] | 0.624 ± 0.111 µM
Cc1ccc(/C=C(\C#N)C(=O)N[C@]23CCC(C)(C)C[C@H]2[C@H]2C(=O)C=C4[C@@]5(C)C=C(C#N)C(=O)C(C)(C)[C@@H]5CC[C@@]4(C)[C@]2(C)CC3)cc1 [Compound I-8] | 0.329 ± 0.047 µM
COc1ccc(/C=C/C(=O)N[C@]23CCC(C)(C)C[C@H]2[C@H]2C(=O)C=C4[C@@]5(C)C=C(C#N)C(=O)C(C)(C)[C@@H]5CC[C@@]4(C)[C@]2(C)CC3)cc1 [Compound I-3] | 0.367 ± 0.018 µM

test system: human liver cancer cell strain HepG2; experiment: MTT proliferation inhibition, HepG2; assay type: cell-based; details: Homo sapiens, HepG2 cells, 48 h, read-out: Inhibitory activity (IC50) against proliferation, HepG2
Procedure: as §1, §2, §3, §4, §5
The MTT reagent was added to the 96-well plate at 10 μL/well to further incubate for 4 h. The medium in the plate was aspirated and 100 μL of DMSO was added to each well, followed by shaking on the platform shaker for 10 min such that the crystals were dissolved. […] The mean value of three preliminary screening results was taken as the final inhibition rate thereof.
as §7

Structure (SMILES) | IC50
Cc1ccc(/C=C/C(=O)N[C@]23CCC(C)(C)C[C@H]2[C@H]2C(=O)C=C4[C@@]5(C)C=C(C#N)C(=O)C(C)(C)[C@@H]5CC[C@@]4(C)[C@]2(C)CC3)cc1 [Compound I-2] | 0.772 ± 0.063 µM
COc1ccc(/C=C(\C#N)C(=O)N[C@]23CCC(C)(C)C[C@H]2[C@H]2C(=O)C=C4[C@@]5(C)C=C(C#N)C(=O)C(C)(C)[C@@H]5CC[C@@]4(C)[C@]2(C)CC3)cc1 [Compound I-9] | 0.816 ± 0.014 µM
Cc1ccc(/C=C(\C#N)C(=O)N[C@]23CCC(C)(C)C[C@H]2[C@H]2C(=O)C=C4[C@@]5(C)C=C(C#N)C(=O)C(C)(C)[C@@H]5CC[C@@]4(C)[C@]2(C)CC3)cc1 [Compound I-8] | 0.563 ± 0.023 µM
COc1ccc(/C=C/C(=O)N[C@]23CCC(C)(C)C[C@H]2[C@H]2C(=O)C=C4[C@@]5(C)C=C(C#N)C(=O)C(C)(C)[C@@H]5CC[C@@]4(C)[C@]2(C)CC3)cc1 [Compound I-3] | 0.527 ± 0.133 µM
